In patent US9163032B2, “Esters of DCPLA and methods of treatment using the same” (Blanchette Rockefeller Neurosciences Institute, priority 2011, dated 2015):

How the values were obtained:
[1] = test system: Phosphatidylserine (C2) Binding Site; experiment: 3H-DCPLA-ME binding to rat brain slices with C1 and C2 competitors (film-autoradiography); conditions: rat brain slices
Protocol: To determine the binding site of DCPLA-ME, ^3H-DCPLA-ME was incubated with rat brain slices in the absence and presence of known C1 and C2 competitors. More specifically, rat brain sections were fixed with formaldehyde, sliced, and incubated with (1)^3H-DCPLA-ME alone; (2)^3H-DCPLA-ME with DCPLA; (3)^3H-DCPLA-ME with Phorbol ester; or (4)^3H-DCPLA-ME and Bryostatin 1. After incubation, the slices were washed with a buffer made of 130 mM NaCl, 5 mM MgCl, 5 mM KCl, 1 mM EGTA, and 0.1% bovine serum albumin in 10 mM HEPES-NaOH, pH 7.4, dried, and analyzed with film-autoradiography.

PKC-ε = target: T1, PKC-ε (Homo sapiens, UniProt Q02156); experiment: PKC activation assay with purified PKC-ε isozyme (32P-phosphoprotein formation); type: biochemical; conditions: for Emax: % of control of PKCε at maximum; for Specificity ε/α: Activation of PKC-ε ÷ activation or inhibition of PKCα at 3xEC50; for EC50: lowest concentration that activates by 50% of maximum activation
T1 sequence (Q02156 1-737): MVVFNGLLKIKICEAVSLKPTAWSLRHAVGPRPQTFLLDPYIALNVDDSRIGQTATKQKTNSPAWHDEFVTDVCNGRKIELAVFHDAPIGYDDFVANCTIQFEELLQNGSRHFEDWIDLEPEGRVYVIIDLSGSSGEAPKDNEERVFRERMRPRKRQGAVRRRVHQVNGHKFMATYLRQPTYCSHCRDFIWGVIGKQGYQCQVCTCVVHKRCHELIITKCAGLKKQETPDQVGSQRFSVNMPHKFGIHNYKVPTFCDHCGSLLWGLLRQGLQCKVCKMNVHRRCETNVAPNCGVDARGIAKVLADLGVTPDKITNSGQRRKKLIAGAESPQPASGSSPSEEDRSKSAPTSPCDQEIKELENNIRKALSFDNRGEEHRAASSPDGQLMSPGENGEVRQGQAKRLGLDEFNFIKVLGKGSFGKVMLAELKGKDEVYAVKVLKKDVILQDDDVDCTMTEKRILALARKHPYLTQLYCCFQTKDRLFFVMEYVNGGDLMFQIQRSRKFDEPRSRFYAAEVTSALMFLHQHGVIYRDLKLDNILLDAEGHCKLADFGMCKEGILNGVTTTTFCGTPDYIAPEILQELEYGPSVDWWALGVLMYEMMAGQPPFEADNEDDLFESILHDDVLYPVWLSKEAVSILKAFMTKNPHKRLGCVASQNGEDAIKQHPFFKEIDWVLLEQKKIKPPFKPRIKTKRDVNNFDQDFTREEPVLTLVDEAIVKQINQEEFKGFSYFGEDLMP
Protocol: For measurement of PKC activation by DCPLA-ME, activation of recombinant PKC-α, PKC-ε, and PKC-δ was evaluated. DCPLA-ME induced activation was measured in the absence of diacylglycerol (DAG) and phosphatidylserine (PS) as described earlier. See Nelson, T. J. et al., J. Biol. Chem., 2009, 284: 34514-34521, and Kanno, T. et al., J. Cell Physiol., 2009, 221: 183-188. Individual enzymes were incubated for 15 min at 37° C. in the presence of 10 μM histones, 4.89 mM CaCl2, 10 mM MgCl2, 20 mM HEPES (pH 7.4), 0.8 mM EDTA, 4 mM EGTA, 4% glycerol, 8 μg/ml aprotinin, 8 μg/ml leupeptin, 2 mM benzamidine, and 0.5 μCi of [γ-^32P]ATP. Purified PKC-α, PKC-ε and PKC-δ were preincubated with DCPLA-ME for 5 min at room temperature. [^32P]-Phosphoprotein formation was measured by adsorption onto phosphocellulose.
To measure PKC, 10 μl of cell homogenate or purified PKC isozyme was incubated for 15 min at 37° C. in the presence of 10 μM histones, 4.89 mM CaCl2, 1.2 μg/μl phosphatidyl-L-serine, 0.18 μg/μl 1,2-dioctanoyl-sn-glycerol, 10 mM MgCl2, 20 mM HEPES (pH 7.4), 0.8 mM EDTA, 4 mM EGTA, 4% glycerol, 8 μg/ml aprotinin, 8 μg/ml leupeptin, and 2 mM benzamidine. [γ32P]ATP (0.5 μCi) was added and 32P-phosphoprotein formation was measured by adsorption onto phosphocellulose as described previously. See Nelson et al., J. Neurochemistry, 1995, 65: 2350-2357.
PKC activity of each compound was measured in the absence of diacylglycerol and phosphatidyl-L-serine and PKC-δ and PKC-ε were measured in the absence of added EGTA and CaCl2, as described by Kanno et al., J. Lipid Res., 2006, 47: 1146-1156. Low concentrations of Ca^2+ are needed because high Ca^2+ interacts with the PKC phosphatidylserine binding site and prevents activation. […] To determine their PKC isozyme specificity, the compounds were pre-incubated with purified isoforms of PKC for five minutes and the PKC activity was measured radiometrically.
The activation and PKC isozyme specificity of DCPLA-ethyl ester was measured following the procedures in Example 1(B) and (C), except that 9 ng of the purified isozyme was used and it was pre-incubated for 5 minutes at room temperature (FIG. 3). PKC-ε activation by DCPLA-tert-butyl ester and DCPLA-retinyl ester was measured in the same manner as DCPLA-ethyl ester (FIG. 3).
The EC50 values, PKC specificity, and activation for a select number of DCPLA esters was determined (see Table 1). EC50 values were determined by measuring the lowest concentration that activates by 50% of maximum activation. […] The specificity and activation of PKC by the various esters of DCPLA were determined from the measurements of activation of PKC isozymes.

[2] = test system: rat primary hippocampal neurons; experiment: Neurotoxic effect of Aβ1-42 oligomers, MTT viability assay; type: cell-based; conditions: 20 hr
Protocol: Amylospheroids (ASPDs) and Aβ monomers were prepared following Hoshi, M., et al. (2003) Proc Natl Acad Sci USA 100, 6370-6375, and Noguchi, A., et al. (2009) J Biol Chem 284, 32895-32905. Briefly, Aβ1-42 was dissolved in 1,1,1,3,3,3-hexafluoro-2-propanol and incubated overnight at 4° C. and then 3 hr at 37° C. The dissolved Aβ1-42 was then lyophilized in 1.5 ml polypropylene centrifuge tubes at 40 nmol/tube concentration. For preparing the ASPDs, the lyophilized Aβ was dissolved in phosphate buffered saline (PBS) without Ca^2+ or Mg^2+ at less than 50 μM concentration and rotated for 14 hr at 4° C. After incubation, the Aβ solution was purified using a 100 kDa molecular mass cutoff filter (Amicon Ultra, Millipore) and the high-molecular weight fraction was saved to obtain the most toxic ASPDs. Aβ derived diffusible ligands (ADDLs) were produced as previously described. See Lambert, M. P et al., Proc. Natl. Acad. Sci. USA, 1998, 95: 6448-6453. Briefly, Aβ1-42 was solubilized at 5 mM in dimethyl sulfoxide, diluted to 100 μM in F12k medium and was incubated at 4° C. for 24 hr. The solution was centrifuged at 14000×g for 10 min at 4° C. and the supernatant was used as the ADDLs.
Viability of cells was measured by MTT assay. MTT (i.e., 3-(4,5-dimethylthiazol-2-yl)-2,5-diphenyltetrazolium bromide) is a tetrazolium salt that is cleaved to formazan by the succinate dehydrogenase, which is only active in viable cells. After solubilization of the formazan, the amount of dye can be quantified with a microplate reader at 570 nm along with a reference of 630 nm. For the MTT assay, 5×10^4 primary rat hippocampal neurons from 18-day-old embryonic Sprague-Dawley rat brains or SH-SY5Y cells were plated on each well of 24-well plates coated with poly-D-lysine. After treatment, the cells were washed with 1× PBS and were incubated with 200 μl of 1 mg/ml MTT solution (Sigma, USA) at 37° C. for 2 hr. Then the MTT-solution was removed and the cells were lysed with 200 μl isopropanol containing 0.04 M HCl and […] for 10 min. Finally, the reading was taken at 570 nm and 630 nm. All the samples were done in triplicate and the data were represented as the percentage of control.
To assess the neurotoxic effect of different sized oligomers, rat primary hippocampal neurons were treated with variable concentrations of these Aβ1-42 species for 20 hr. Viability of the treated cells was compared to untreated cells using the MTT assay described above.

Compound | Emax (PKC-ε) | Specificity ε/α (PKC-ε) | EC50 (PKC-ε) | also measured
CCCCCC1CC1CC1CC1CCCCCCCC(=O)O (stereo not shown) [DCPLA, 8-[2-(2-pentylcyclopropylmethyl)-cyclopropyl]-octanoic acid] | 300% | 7.4 | 1000 nM | 3H-DCPLA-ME binding, 30 nM competitor [1]: 86%; 3H-DCPLA-ME binding, 1 μM competitor [1]: 35%
CCCC(=O)O[C@@H]1[C@@H](C)[C@@]2(O)[C@@H](C=C(CO)C[C@]3(O)C(=O)C(C)=C[C@@H]23)[C@@H]2C(C)(C)[C@]12OC(=O)CCC [Phorbol ester (PdBu)] | – | – | – | 3H-DCPLA-ME binding, 30 nM competitor [1]: 100%; 3H-DCPLA-ME binding, 1 μM competitor [1]: 81%
oAβ < 100 kDa: filtrate from the 100 kDa filtration of ASPD preparation, 12 monomers on average | – | – | – | Viability of primary neuron ([2]; 50 nM): 76.41 ± 5.54 % of control; Viability of primary neuron ([2]; 50 nM, listed as OAβ<100 kDa filtrate): significantly cytotoxic; Viability of primary neuron ([2]; 500 nM): 62.94 ± 9.53 % of control; Viability of primary neuron ([2]; 1000 nM (1 μM)): 53.52 ± 2.43 % of control

Now from value to compound, other results behind:

Emax (PKC-ε) | Specificity ε/α (PKC-ε) | EC50 (PKC-ε) | Compound | also measured
140% | 8.1 | 3 nM | CCCCCCCCC1CC1CCCCCCCCOC(=O)CCCCCCCC1CC1CC1CC1CCCCC (stereo not shown) [DCPLA-cyclopropanated oleyl ester] | concentration of maximal activation (PKC-ε; FIG. 2, FIG. 4): 10 nM; PKC isozyme specificity (PKC-ε; PKC-ε vs PKC-α and PKC-δ): relatively specific for PKC-ε; PKC-ε activation at its peak (PKC-ε; maximum, FIG. 1, 2, 4): 140 % of control
126% | 4.2 | 3 nM | CCCCCC1CC1CC1CC1CCCCCCCC(=O)OCC (stereo not shown) [DCPLA-ethyl ester] | –
129% | – | 10 nM | CCCCCC1CC1CC1CC1CCCCCCCC(=O)OC/C=C(C)/C=C/C=C(C)/C=C/C1=C(C)CCCC1(C)C (stereo not shown) [DCPLA-retinyl ester] | –
130% | – | 1 nM | CCCCCC1CC1CC1CC1CCCCCCCC(=O)OC(C)(C)C (stereo not shown) [DCPLA-t-butyl ester, DCPLA-tert-butyl ester] | form of activity vs. concentration response (PKC-ε): bimodal activation
